Assay results as given in patent publication US7419966B2, “[5-carboxamido or 5-fluoro]-[2′,3′-unsaturated or 3′-modified]-pyrimidine nucleosides” (Emory University, priority 1995, dated 2008).
Like-named read-outs stand apart in the source and are kept apart here.

Assays:
Format in all cases: cell-based
HIV-1 (strain LAV) = test: Anti-HIV-1 activity in PHA-stimulated human PBM cells (reverse transcriptase readout); settings: for EC50: Table 3, HIV-1LAI, estimated 10% error factor, read-out: Anti-HIV-1 in PBMC EC50; for antiviral activity against HIV, in words: text b71, b85
Protocol: The ability of nucleosides to inhibit HIV can be measured by various experimental techniques. The technique used herein, and described in detail below, measures the inhibition of viral replication in phytohemagglutinin (PHA) stimulated human peripheral blood mononuclear (PBM) cells infected with HIV-1. (strain LAV). The amount of virus produced is determined by measuring the virus-coded reverse transcriptase enzyme. The amount of enzyme produced is proportional to the amount of virus produced.
Three-day-old phytohemagglutinin-stimulated PBM cells (10^6 cells/ml) from hepatitis B and HIV-1 seronegative healthy donors were infected with HIV-1 (strain LAV) at a concentration of about 100 times the 50% tissue culture infectious dose (TICD 50) per ml and cultured in the presence and absence of various concentrations of antiviral compounds.
Approximately one hour after infection, the medium, with the compound to be tested (2 times the final concentration in medium) or without compound, was added to the flasks (5 ml; final volume 10 ml). AZT was used as a positive control.
The cells were exposed to the virus (about 2×10^5 dpm/ml, as determined by reverse transcriptase assay) and then placed in a CO2 incubator. HIV-1 (strain LAV) was obtained from the Center for Disease Control, Atlanta, Ga. The methods used for culturing the PBM cells, harvesting the virus and determining the reverse transcriptase activity were those described by McDougal et al. (J. Immun. Meth. 76, 171-183, 1985) and Spira et al. (J. Clin. Meth. 25, 97-99, 1987), except that fungizone was not included in the medium (see Schinazi, et al., Antimicrob. Agents Chemother. 32, 1784-1787 (1988); Id., 34:1061-1067 (1990)).
On day 6, the cells and supernatant were transferred to a 15 ml tube and centrifuged at about 900 g for 10 minutes. Five ml of supernatant were removed and the virus was concentrated by centrifugation at 40,000 rpm for 30 minutes (Beckman 70.1 Ti rotor). The solubilized virus pellet was processed for determination of the levels of reverse transcriptase. Results are expressed in dpm/ml of sampled supernatant. Virus from smaller volumes of supernatant (1 ml) can also be concentrated by centrifugation prior to solubilization and determination of reverse transcriptase levels.

[1] = system: uninfected human PBM cells; test: Toxicity in mitogen-stimulated uninfected human PBM cells (cell count, trypan blue exclusion); settings: Table 3
Protocol: Mitogen stimulated uninfected human PBM cells (3.8×10^5 cells/ml) were cultured in the presence and absence of drug under similar conditions as those used for the antiviral assay described above. The cells were counted after 6 days using a hemacytometer and the trypan blue exclusion method, as described by Schinazi et al., Antimicrobial Agents and Chemotherapy, 22(3), 499 (1982). […]

CEM cells = test: Toxicity in CEM cells; settings: Table 3
Vero cells = test: Toxicity in Vero cells; settings: Table 3
HIV-2ROD2 = test: Anti-HIV-2 activity in PBMC; settings: Table 3; HIV-2ROD2; read-out: Anti-HIV-2 in PBMC EC50
SIVSMM = test: Anti-SIV activity in PBMC; settings: Table 3; SIVSMM; read-out: Anti-SIV in PBMC EC50
[2] = system: hepatitis B virus in transfected HepG-2 (2.2.15) cells; test: Anti-HBV activity in 2.2.15 cell cultures (HBV virion DNA and replicative intermediates); settings: for EC50 / EC90: day 9
Protocol: The ability of the active compounds to inhibit the growth of virus in 2.2.15 cell cultures (HepG2 cells transformed with hepatitis virion) can be evaluated as described in detail below.
A summary and description of the assay for antiviral effects in this culture system and the analysis of HBV DNA has been described (Korba and Milman, 1991, Antiviral Res., 15:217). The antiviral evaluations were performed on two separate passages of cells. All wells, in all plates, were seeded at the same density and at the same time.
Due to the inherent variations in the levels of both intracellular and extracellular HBV DNA, only depressions greater than 3.5-fold (for HBV virion DNA) or 3.0-fold (for HBV DNA replication intermediates) from the average levels for these HBV DNA forms in untreated cells are considered to be statistically significant [P<0.05]. The levels of integrated HBV DNA in each cellular DNA preparation (which remain constant on a per cell basis in these experiments) were used to calculate the levels of intracellular HBV DNA forms, thereby ensuring that equal amounts of cellular DNA were compared between separate samples.
Typical values for extracellular HBV virion DNA in untreated cells ranged from 50 to 150 pg/ml culture medium (average of approximately 76 pg/ml). Intracellular HBV DNA replication intermediates in untreated cells ranged from 50 to 100 pg/μg cell DNA (average approximately 74 pg/μg cell DNA). In general, depressions in the levels of intracellular HBV DNA due to treatment with antiviral compounds are less pronounced, and occur more slowly, than depressions in the levels of HBV virion DNA (Korba and Milman, 1991, Antiviral Res., 15:217).

[3] = system: 2.2.15 cells (HepG2 cells transformed with hepatitis virion); test: Toxicity in 2.2.15 cells by neutral red dye uptake; settings: Table 4; 2.2.15 cells; read-out: Cytotoxicity IC50 ± SD
Protocol: (§1) Toxicity analyses were performed to assess whether any observed antiviral effects were due to a general effect on cell viability. The method used herein was the measurement of the uptake of neutral red dye, a standard and widely used assay for cell viability in a variety of virus-host systems, including HSV and HIV. Toxicity analyses were performed in 96-well flat bottomed tissue culture plates. Cells for the toxicity analyses were cultured and treated with test compounds with the same schedule as described for the antiviral evaluations below. Each compound was tested at 4 concentrations, each in triplicate cultures (wells “A”, “B”, and “C”). Uptake of neutral red dye was used to determine the relative level of toxicity. The absorbance of internalized dye at 510 nm (Asin) was used for the quantitative analysis. Values are presented as a percentage of the average Asin values in 9 separate cultures of untreated cells maintained on the same 96-well plate as the test compounds. Dye uptake in the 9 control cultures on plate 5 ranged from 91.6% to 110.4%, and on plate 6 from 96.6% to 109%.

various cell lines = test: Toxicity in various cell lines (PBM, CEM, Vero); settings: PBM, CEM and Vero cells
[4] = Toxicity in 2.2.15 cells by neutral red dye uptake; settings: human, 2.2.15 cells (HepG2 cells transformed with hepatitis virion), 2.2.15 cells, read-out: Cytotoxicity IC50 ± SD
Protocol: as §1

[5] = Table 4, extracellular DNA, untreated control 88 pg/ml, read-out: HBV virion EC50 ± SD
[6] = Table 4, extracellular DNA, untreated control 88 pg/ml, read-out: HBV virion EC90 ± SD
[7] = Table 4, replicative intermediates (intracellular DNA), untreated control 79 pg/μg cell DNA, read-out: HBV RI EC50 ± SD
[8] = Table 4, replicative intermediates (intracellular DNA), untreated control 79 pg/μg cell DNA, read-out: HBV RI EC90 ± SD

Nc1ccn([C@@H]2C=C[C@H](CO)O2)c(=O)n1 [L-D4C, β-L-2′,3′-didehydro-2′,3′-dideoxy-cytidine]
EC50 (HIV-1 (strain LAV)): 0.0058 µM | antiviral activity against HIV, in words (HIV-1 (strain LAV)): significant activity against HIV | IC50 [1]: > 100 µM | IC50 (CEM cells): 0.73 µM | IC50 (Vero cells): 10.8 µM | EC50 (HIV-2ROD2): 0.033 µM | EC50 (SIVSMM): 0.048 µM | EC50 [2, 5]: 0.15 ± 0.02 µM | EC90 [2, 6]: 0.33 ± 0.04 µM | EC50 [2, 7]: 0.91 ± 0.09 µM | EC90 [2, 8]: 2.3 ± 0.3 µM | IC50 [3]: 1040 ± 92 µM | toxicity, in words (various cell lines): relatively nontoxic

Nc1nc(=O)n([C@@H]2C=C[C@H](CO)O2)cc1F [L-F-D4C, β-L-2′,3′-didehydro-2′,3′-dideoxy-5-fluoro-cytidine]
EC50 (HIV-1 (strain LAV)): 0.0015 µM | antiviral activity against HIV, in words (HIV-1 (strain LAV)): significant activity against HIV | IC50 [1]: > 100 µM | IC50 (CEM cells): 7.3 µM | IC50 (Vero cells): 40.3 µM | EC50 (HIV-2ROD2): 0.0006 µM | EC50 (SIVSMM): 0.00015 µM | EC50 [2, 5]: 0.28 ± 0.03 µM | EC90 [2, 6]: 0.41 ± 0.04 µM | EC50 [2, 7]: 0.33 ± 0.04 µM | EC90 [2, 8]: 0.75 ± 0.07 µM | IC50 [3]: > 3 µM | toxicity, in words (various cell lines): relatively nontoxic

Nc1ccn([C@H]2CC[C@@H](CO)O2)c(=O)n1 [β-D-DDC, 2′,3′-dideoxycytidine, reference compound]
EC50 ([2]; Hepatitis B virus, HepG2 2.2.15, 216 h, read-out: HBV RI EC50 ± SD, Table 2, replicative intermediates (intracellular DNA), untreated control 87 pg/μg cell DNA): 3.4 ± 0.4 µM | EC50 ([2]; Hepatitis B virus, HepG2 2.2.15, 216 h, read-out: HBV RI EC50 ± SD, Table 4, replicative intermediates (intracellular DNA), untreated control 79 pg/μg cell DNA): 2.4 ± 0.3 µM | EC90 ([2]; Hepatitis B virus, HepG2 2.2.15, 216 h, read-out: HBV RI EC90 ± SD, Table 2, replicative intermediates (intracellular DNA), untreated control 87 pg/μg cell DNA): 13 ± 1.4 µM | EC90 ([2]; Hepatitis B virus, HepG2 2.2.15, 216 h, read-out: HBV RI EC90 ± SD, Table 4, replicative intermediates (intracellular DNA), untreated control 79 pg/μg cell DNA): 12 ± 1.1 µM | EC50 ([2]; Hepatitis B virus, HepG2 2.2.15, 216 h, read-out: HBV virion EC50 ± SD, Table 2, extracellular DNA, untreated control 102 pg/ml): 1.4 ± 0.2 µM | EC50 ([2]; Hepatitis B virus, HepG2 2.2.15, 216 h, read-out: HBV virion EC50 ± SD, Table 4, extracellular DNA, untreated control 88 pg/ml): 1.5 ± 0.2 µM | EC90 ([2]; Hepatitis B virus, HepG2 2.2.15, 216 h, read-out: HBV virion EC90 ± SD, Table 2, extracellular DNA, untreated control 102 pg/ml): 9.6 ± 1.1 µM | EC90 ([2]; Hepatitis B virus, HepG2 2.2.15, 216 h, read-out: HBV virion EC90 ± SD, Table 4, extracellular DNA, untreated control 88 pg/ml): 8.2 ± 0.8 µM | Selectivity Index IC50/EC90 RI ([2]; Table 2): 18 | Selectivity Index IC50/EC90 Virion ([2]; Table 2): 26 | Selectivity Index IC50/EC90 RI ([2]; Table 4): 22 | Selectivity Index IC50/EC90 Virion ([2]; Table 4): 37 | IC50 ([4]; Table 2): 236 ± 21 µM | IC50 ([4]; Table 4): 259 ± 18 µM

Nc1nc(=O)n([C@@H]2CS[C@H](CO)O2)cc1F [β-L-FTC, (−)-cis-2-hydroxymethyl-5-(5-fluorocytosin-1-yl)-1,3-oxathiolane, reference compound]
EC50 ([2]; Hepatitis B virus, HepG2 2.2.15, 216 h, Table 2, extracellular DNA, untreated control 102 pg/ml, read-out: HBV virion EC50 ± SD): 0.04 ± 0.006 µM | EC90 ([2]; Hepatitis B virus, HepG2 2.2.15, 216 h, Table 2, extracellular DNA, untreated control 102 pg/ml, read-out: HBV virion EC90 ± SD): 1.1 ± 0.1 µM | EC50 ([2]; Hepatitis B virus, HepG2 2.2.15, 216 h, Table 2, replicative intermediates (intracellular DNA), untreated control 87 pg/μg cell DNA, read-out: HBV RI EC50 ± SD): 0.16 ± 0.01 µM | EC90 ([2]; Hepatitis B virus, HepG2 2.2.15, 216 h, Table 2, replicative intermediates (intracellular DNA), untreated control 87 pg/μg cell DNA, read-out: HBV RI EC90 ± SD): 0.39 ± 0.22 µM | Selectivity Index IC50/EC90 RI ([2]; Table 2): 1,913 | Selectivity Index IC50/EC90 Virion ([2]; Table 2): 678 | IC50 ([4]; Table 2): 746 ± 33 µM
